Legend:
Format in all cases: in vivo
[1] = tested on: Italian ryegrass (Lolium multiflorum); assay: Test A preemergence, visual injury rating; details: for Plant response rating, Ryegrass, Italian: 31 g ai/ha, 0 to 100 scale, 0 no effect, 100 complete control; for Ryegrass, Italian plant response rating: 125 g ai/ha, 0 to 100 scale (0 no effect, 100 complete control)
Procedure, shortened: (§1)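 Visual 0–100 rating (100 = complete control) taken about 10 d post-treatment relative to untreated checks. Preemergence: directed soil spray on sown loam/sand pots. Postemergence: seedlings 2–10 cm, 1–2 leaf. Non-phytotoxic solvent formulation with surfactant.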

[2] = tested on: barnyardgrass (Echinochloa crus-galli); assay: Test A preemergence, visual injury rating; details: for Plant response rating, Barnyardgrass: 31 g ai/ha, 0 to 100 scale, 0 no effect, 100 complete control; for Barnyardgrass plant response rating: 125 g ai/ha, 0 to 100 scale (0 no effect, 100 complete control)
Procedure, shortened: as §1

[3] = tested on: giant foxtail (Setaria faberii); assay: Test A preemergence, visual injury rating; details: for Plant response rating, Foxtail, Giant: 31 g ai/ha, 0 to 100 scale, 0 no effect, 100 complete control; for Foxtail, Giant plant response rating: 125 g ai/ha, 0 to 100 scale (0 no effect, 100 complete control)
Procedure, shortened: as §1

kochia (Kochia scoparia) [4] = assay: Test A preemergence, visual injury rating; details: for Plant response rating, Kochia: 31 g ai/ha, 0 to 100 scale, 0 no effect, 100 complete control; for Kochia plant response rating: 125 g ai/ha, 0 to 100 scale (0 no effect, 100 complete control)
Procedure, shortened: as §1

[5] = tested on: pigweed (Amaranthus retroflexus); assay: Test A preemergence, visual injury rating; details: for Plant response rating, Pigweed: 31 g ai/ha, 0 to 100 scale, 0 no effect, 100 complete control; for Pigweed plant response rating: 125 g ai/ha, 0 to 100 scale (0 no effect, 100 complete control)
Procedure, shortened: as §1

[6] = tested on: ragweed (common ragweed, Ambrosia elatior); assay: Test A preemergence, visual injury rating; details: for Plant response rating, Ragweed: 31 g ai/ha, 0 to 100 scale, 0 no effect, 100 complete control; for Ragweed plant response rating: 125 g ai/ha, 0 to 100 scale (0 no effect, 100 complete control)
Procedure, shortened: as §1

[7] = tested on: Italian ryegrass (Lolium multiflorum); assay: Test A postemergence, visual injury rating; details: 0 is no effect, 100 is complete control; for Ryegrass, Italian plant response rating: 31 g ai/ha, 0 to 100 scale, approximately 10 days; for Ryegrass, Italian plant response rating (0 to 100 scale): 125 g ai/ha
Procedure, shortened: as §1

[8] = tested on: barnyardgrass (Echinochloa crus-galli); assay: Test A postemergence, visual injury rating; details: 0 is no effect, 100 is complete control; for Barnyardgrass plant response rating: 31 g ai/ha, 0 to 100 scale, approximately 10 days; for Barnyardgrass plant response rating (0 to 100 scale): 125 g ai/ha
Procedure, shortened: as §1

[9] = tested on: blackgrass (Alopecurus myosuroides); assay: Test A postemergence, visual injury rating; details: 0 is no effect, 100 is complete control; for Blackgrass plant response rating: 31 g ai/ha, 0 to 100 scale, approximately 10 days; for Blackgrass plant response rating (0 to 100 scale): 125 g ai/ha
Procedure, shortened: as §1

corn (Zea mays) = assay: Test A postemergence, visual injury rating; details: 0 is no effect, 100 is complete control; for Corn plant response rating: 31 g ai/ha, 0 to 100 scale, approximately 10 days; for Corn plant response rating (0 to 100 scale): 125 g ai/ha
Procedure, shortened: as §1

[10] = tested on: galium (catchweed bedstraw, Galium aparine); assay: Test A postemergence, visual injury rating; details: 0 is no effect, 100 is complete control; for Galium plant response rating: 31 g ai/ha, 0 to 100 scale, approximately 10 days; for Galium plant response rating (0 to 100 scale): 125 g ai/ha
Procedure, shortened: as §1

[11] = tested on: giant foxtail (Setaria faberii); assay: Test A postemergence, visual injury rating; details: 0 is no effect, 100 is complete control; for Foxtail, Giant plant response rating: 31 g ai/ha, 0 to 100 scale, approximately 10 days; for Foxtail, Giant plant response rating (0 to 100 scale): 125 g ai/ha
Procedure, shortened: as §1

kochia (Kochia scoparia) [12] = assay: Test A postemergence, visual injury rating; details: 0 is no effect, 100 is complete control; for Kochia plant response rating: 31 g ai/ha, 0 to 100 scale, approximately 10 days; for Kochia plant response rating (0 to 100 scale): 125 g ai/ha
Procedure, shortened: as §1

[13] = tested on: pigweed (Amaranthus retroflexus); assay: Test A postemergence, visual injury rating; details: 0 is no effect, 100 is complete control; for Pigweed plant response rating: 31 g ai/ha, 0 to 100 scale, approximately 10 days; for Pigweed plant response rating (0 to 100 scale): 125 g ai/ha
Procedure, shortened: as §1

[14] = tested on: ragweed (common ragweed, Ambrosia elatior); assay: Test A postemergence, visual injury rating; details: 0 is no effect, 100 is complete control; for Ragweed plant response rating: 31 g ai/ha, 0 to 100 scale, approximately 10 days; for Ragweed plant response rating (0 to 100 scale): 125 g ai/ha
Procedure, shortened: as §1

[15] = tested on: wheat (Triticum aestivum); assay: Test A postemergence, visual injury rating; details: 0 is no effect, 100 is complete control; for Wheat plant response rating: 31 g ai/ha, 0 to 100 scale, approximately 10 days; for Wheat plant response rating (0 to 100 scale): 125 g ai/ha
Procedure, shortened: as §1

[16] = tested on: barnyardgrass (Echinochloa crus-galli); assay: Test B flooded paddy test, plant response rating; details: 250 g ai/ha; Flood; scale of 0 to 100 where 0 is no effect and 100 is complete control; 13 to 15 days
Procedure, shortened: (§2)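 Test compounds are applied straight into paddy water held 3 cm above the soil surface, with that flood maintained for the whole test. After 13 to 15 days in the greenhouse, each species is scored visually relative to controls.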

[17] = tested on: ducksalad (Heteranthera limosa); assay: Test B flooded paddy test, plant response rating; details: 250 g ai/ha; Flood; scale of 0 to 100 where 0 is no effect and 100 is complete control; 13 to 15 days
Procedure, shortened: as §2

rice (Oryza sativa) = assay: Test B flooded paddy test, plant response rating; details: 250 g ai/ha; Flood; scale of 0 to 100 where 0 is no effect and 100 is complete control; 13 to 15 days
Procedure, shortened: as §2

[18] = tested on: sedge, umbrella (small-flower umbrella sedge, Cyperus difformis); assay: Test B flooded paddy test, plant response rating; details: 250 g ai/ha; Flood; scale of 0 to 100 where 0 is no effect and 100 is complete control; 13 to 15 days
Procedure, shortened: as §2

Row | Structure (SMILES) | Plant response rating, Ryegrass, Italian [1] | Ryegrass, Italian plant response rating [1] | Plant response rating, Barnyardgrass [2] | Barnyardgrass plant response rating [2] | Plant response rating, Foxtail, Giant [3] | Foxtail, Giant plant response rating [3] | Plant response rating, Kochia (kochia (Kochia scoparia) [4]) | Kochia plant response rating (kochia (Kochia scoparia) [4]) | Plant response rating, Pigweed [5] | Pigweed plant response rating [5] | Plant response rating, Ragweed [6] | Ragweed plant response rating [6] | Ryegrass, Italian plant response rating [7] | Ryegrass, Italian plant response rating (0 to 100 scale) [7] | Barnyardgrass plant response rating [8] | Barnyardgrass plant response rating (0 to 100 scale) [8] | Blackgrass plant response rating [9] | Blackgrass plant response rating (0 to 100 scale) [9] | Corn plant response rating (corn (Zea mays)) | Corn plant response rating (0 to 100 scale) (corn (Zea mays)) | also measured
1 | O=C(OC/C=C/C(F)(F)F)c1c(Br)cccc1Oc1ncc(Cl)cn1 [Compound 50] | 0 | 0 | 0 | 10 | 50 | 100 | 0 | 0 | 0 | 90 | 0 | 0 | 0 | 20 | 0 | 20 | 0 | 20 | 10 | 10 | Galium plant response rating [10]: 60; Galium plant response rating (0 to 100 scale) [10]: 90; Foxtail, Giant plant response rating [11]: 20; Foxtail, Giant plant response rating (0 to 100 scale) [11]: 70; Kochia plant response rating (kochia (Kochia scoparia) [12]): 60; Kochia plant response rating (0 to 100 scale) (kochia (Kochia scoparia) [12]): 90; Pigweed plant response rating [13]: 80; Pigweed plant response rating (0 to 100 scale) [13]: 100; Ragweed plant response rating [14]: 0; Ragweed plant response rating (0 to 100 scale) [14]: 0; Wheat plant response rating [15]: 0; Wheat plant response rating (0 to 100 scale) [15]: 0; Plant response rating, Barnyardgrass [16]: 0; Plant response rating, Ducksalad [17]: 65; Plant response rating, Rice (rice (Oryza sativa)): 0; Plant response rating, Sedge, Umbrella [18]: 80
2 | COc1cccc(Oc2ncc(Cl)cn2)c1C(C)=O [Compound 51] | 0 | 0 | 0 | 0 | 0 | 0 | 0 | 0 | 0 | 0 | 0 | 0 | 0 | 0 | 0 | 0 | 0 | 0 | 0 | 0 | Galium plant response rating [10]: 0; Galium plant response rating (0 to 100 scale) [10]: 10; Foxtail, Giant plant response rating [11]: 0; Foxtail, Giant plant response rating (0 to 100 scale) [11]: 0; Kochia plant response rating (kochia (Kochia scoparia) [12]): 0; Kochia plant response rating (0 to 100 scale) (kochia (Kochia scoparia) [12]): 0; Pigweed plant response rating [13]: 0; Pigweed plant response rating (0 to 100 scale) [13]: 0; Ragweed plant response rating [14]: 0; Ragweed plant response rating (0 to 100 scale) [14]: 0; Wheat plant response rating [15]: 0; Wheat plant response rating (0 to 100 scale) [15]: 0; Plant response rating, Barnyardgrass [16]: 15; Plant response rating, Ducksalad [17]: 0; Plant response rating, Rice (rice (Oryza sativa)): 15; Plant response rating, Sedge, Umbrella [18]: 0
